{"source": "patent US9623023B2", "about": "“Class of non-stimulant treatment and ADHD and related disorders” (The Florida State University Research Foundation, …, priority 2012, dated 2017)", "key": {"[1]": {"test_system": "SHR rats", "experiment": "Locomotor activity (hyperactivity) in spontaneously hypertensive rat (SHR) ADHD model", "assay_type": "in vivo", "experimental": "(§1) Spontaneously hypertensive rat (SHR) as an ADHD model. The SHR is a spontaneously occurring mutation associated with hypertension. […] Thus, both the SHR and the PNE mouse model show hyperactivity and increased frontal cortical KOPR activity. The selective KOPR antagonist, nor-BNI (10 mg/kg, i.p.) or the saline vehicle were administered to 60-day old SHR and WKY control rats (Sagvolden et al., 2009 (Reference 56)) at 17:00 hr and locomotor activity measured at hourly intervals over the next 19 hr (FIGS. 4 and 5). […] Since the hyperactivity in the SHR rat was evident during the lights off period from 19:00 hr to 7:00 hr, activity was compared during the lights off period between SHR rats receiving nor-BNI and those receiving saline.\nThe long-lasting effects of nor-BNI in the SHR is consistent with previous reports that the desensitization of the KOPR produced by nor-BNI lasts for up to 21 days (Metcalf and Coop, 2005 (Reference 43); Patkar et al., 2013 (Reference 48))."}, "[2]": {"test_system": "WKY control rats", "experiment": "Locomotor activity in WKY control rats", "assay_type": "in vivo, rat", "conditions": "10 mg/kg i.p.", "experimental": "as §1"}, "[3]": {"test_system": "KOPR", "conditions": "previous reports (Metcalf and Coop 2005; Patkar 2013); cited from earlier work"}, "[4]": {"test_system": "PNE mice", "experiment": "Locomotor activity (hyperactivity) in prenatal nicotine exposure (PNE) mouse model", "assay_type": "in vivo", "conditions": "oral"}, "[5]": {"test_system": "PNE mice", "conditions": "active phase (lights off), Zhu 2012; cited from earlier work"}, "[6]": {"test_system": "PFC dopamine turnover", "conditions": "PNE mice; MPH administration; Zhu 2012; cited from earlier work"}, "[7]": {"test_system": "hyperactivity in children", "conditions": "oral, dose range 0.5-2 mg/kg; previous reports; cited from earlier work"}, "[8]": {"conditions": "long-term usage; Recant 1980; cited from earlier work"}}, "note": "Entries after “also recorded” stand apart in the source; their conditions may differ.", "data": [{"smiles": "Oc1ccc2c3c1O[C@H]1c4[nH]c5c(c4C[C@@]4(O)[C@@H](C2)N(CC2CC2)CC[C@]314)C[C@@]1(O)[C@H]2Cc3ccc(O)c4c3[C@@]1(CCN2CC1CC1)[C@H]5O4", "note": "[nor-BNI, nor-binaltorphimine]", "values": [{"measurement": "locomotor activity during lights off period (Mean±SEM beam breaks)", "setting": "[1]; 60-day old SHR, 10 mg/kg i.p. at 17:00 hr, lights off 19:00-7:00 hr, saline=4830.75±609.2, p=0.04", "result": "2743.25±945.8", "unit": "beam breaks"}, {"measurement": "effect on locomotor activity compared to saline", "setting": "[1]; SHR, 10 mg/kg i.p., FIG. 4", "result": "reduced the locomotor activity"}, {"measurement": "period over which decrease in hyperactivity was observed", "setting": "[1]; SHR, single i.p. injection 10 mg/kg", "result": 21, "unit": "days"}, {"measurement": "locomotor activity during lights off period (Mean±SEM beam breaks)", "setting": "[2]; 60-day old WKY control rats, saline=2604.5±608.1, p>0.05", "result": "2494.75±831.6", "unit": "beam breaks"}, {"measurement": "effect on locomotor activity", "setting": "[2]; WKY control rats, FIG. 5", "result": "did not affect locomotor activity"}, {"measurement": "duration of desensitization of the KOPR", "setting": "[3]", "result": "up to 21 days"}]}, {"smiles": "COC(=O)C(c1ccccc1)C1CCCCN1", "note": "(stereo not drawn) [MPH, methylphenidate]", "values": [{"measurement": "locomotor activity", "setting": "[4]; PNE mice, MPH 0.75 mg/kg, FIG. 2 graph 204", "result": "significantly decreased locomotor activity"}, {"measurement": "locomotor activity after single oral administration", "setting": "[5]", "result": "reduces the activity to the levels seen in drug naïve control mice"}, {"measurement": "PFC dopamine turnover", "setting": "[6]", "result": "increases PFC dopamine turnover"}]}, {"smiles": "O=C1CC[C@@]2(O)[C@H]3Cc4ccc(O)c5c4[C@@]2(CCN3CC2CC2)[C@H]1O5", "note": "[naltrexone]", "values": [{"measurement": "locomotor activity compared to vehicle", "setting": "[4]; P60 male PNE mice, naltrexone 1 mg/kg, at 19:00 hrs, FIG. 2 graph 202", "result": "significantly reduces locomotor activity; also recorded: reduces hyperactivity in PNE mice in a manner comparable to that of methylphenidate"}, {"measurement": "hyperactivity in children", "setting": "[7]", "result": "effective in reducing hyperactivity"}, {"measurement": "weight gain", "setting": "[8]", "result": "reduced weight gain"}]}]}
